From patent US20020081684A1, “Method and nucleotide sequence for transforming microorganisms” (priority 1995, published 2002)

Experiments:
[1] = target: T1, L-malic acid carrier in S. pombe (Schizosaccharomyces pombe, UniProt P50537); details: Sousa et al. (1992); cited from earlier work
T1 construct: host or cells: S. pombe cells (per the assay title)
T1 sequence (P50537 1-438): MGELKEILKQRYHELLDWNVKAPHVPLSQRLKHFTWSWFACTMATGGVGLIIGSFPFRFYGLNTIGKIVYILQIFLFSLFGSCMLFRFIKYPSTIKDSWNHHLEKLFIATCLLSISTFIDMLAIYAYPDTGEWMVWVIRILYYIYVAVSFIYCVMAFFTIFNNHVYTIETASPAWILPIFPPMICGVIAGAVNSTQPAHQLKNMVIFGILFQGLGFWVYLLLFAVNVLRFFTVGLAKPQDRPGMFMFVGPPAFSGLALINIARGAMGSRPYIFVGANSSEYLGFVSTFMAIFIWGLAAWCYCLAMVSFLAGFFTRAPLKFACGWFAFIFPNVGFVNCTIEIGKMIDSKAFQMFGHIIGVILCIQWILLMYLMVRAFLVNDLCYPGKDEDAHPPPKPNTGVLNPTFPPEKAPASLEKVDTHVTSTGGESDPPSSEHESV

S. pombe Mae1 permease = target: T2, S. pombe Mae1 permease (Schizosaccharomyces pombe, UniProt P50537); test: Transport assays for 14C-labelled L-malic, succinic, malonic and α-ketoglutaric acids in S. pombe wild-type, mae1- mutant and complemented mutant; assay type: cell-based; details: 14C-labelled acid, 0.1 M KCl pH 3.5, 30° C.
T2 construct: endogenous in cells; host or cells: S. pombe 972 leu1-32 h- (wild type); also the mae1- mutant complemented with the 3.4 kb SmaI genomic mae1 fragment in pRS315
T2 sequence (P50537 1-438): T1 sequence (P50537 1-438)
Experimental: Yeast cells in the logarithmic growth phase (OD of 1.2 at A595) were harvested and washed three times with 0.1 M KCI (pH 3.5). The cells were resuspended in 4 ml 0.1 M KCI (pH 3.5) and stored at 4° C. Transport assays were completed within 3 h. The cell suspensions were pre-incubated for 5 min in a shaker water bath at 30° C. at 100 rpm. Assays were initiated by adding 25 μl of ^14C-labelled L malate (45 μCi/μmol) (Amersham), 100 μl of succinic acid (42 μCi/μmol) (ICN), 100 μl malonic add (56.7 μCi/μmol) (Du Pont) or 100 μl a-ketoglutarate (51.8 μCi/μmol) (Du Pont). A 0.5-ml sample was withdrawn at 10, 20, 40, 60, and 120 sec intervals, rapidly filtered through 0.45 μm membranes (Mllipore Corporation, Bedford, Mass.), and immediately washed three times with 5 ml amounts of ice-cold 0.1 M KCI (pH 3.5). Filters containing the cells were oven-dried at 50° C. and placed in scintillation vials containing 5 ml of scintillation reaction mixture (Boehringer Mannheim, Mannheim, Germany). Pre-boiled (5 min) cells were used to determine non-specific binding of [^14C] malate, succinate, malonate and α-ketoglutarate to the yeast cells.

transport in the mae1-mutant complemented with the 3.4kb Sma1 fragment containing the mae1 gene (S. pombe Mae1 permease) | Compound | inhibition of initial uptake rates of L-malic acid [1]
 | O=C(O)C[C@@H](O)C(=O)O [D-malic acid] | competitive inhibition
fully restored | O=C(O)CCC(=O)O [succinic acid] | competitive inhibition
fully restored | O=C(O)C[C@H](O)C(=O)O [L-malic acid] | 
 | O=C(O)/C=C\C(=O)O [maleic acid] | competitive inhibition
 | O=C(O)/C=C/C(=O)O [fumaric acid] | competitive inhibition
 | O=C(O)CC(=O)C(=O)O [oxaloacetic acid] | competitive inhibition
fully restored | O=C(O)CC(=O)O [malonic acid] | competitive inhibition
